One test has as its target EGFR T790M L858R (Homo sapiens, UniProt P00533, L858R/T790M). Kind of test: EGFR T790ML858R Lance assay. The class given is biochemical.
For another test, the target named is T1, HER2 INS YVMA (Homo sapiens, UniProt P04626, INS775YVMA).
T1 construct: purchased DPF
Description: Her2 Exon 20 InsYVMA Lance kinase activity assay. The class given is biochemical. As to conditions: 1 h incubation, 1,6 µM ATP. As for the experimental part:
This protocol describes how the Lance Kinase Activity Assay was performed to determine IC50 values of compounds of general formula (I) against HER2 INS YVMA. The principle behind this enzymatic assay is based upon the phosphorylation of the Ulight-peptide substrate. It is detected by using a specific EU-labeled anti-phospho peptide antibody. The binding of the Eu labeled anti-phospho peptide antibody to the phosphorylated ULight labeled peptide gives rise to a FRET-signal.
Binding of an inhibitor to the kinase prevents phosphorylation of the Ulight-substrate, resulting in a loss of FRET. In table 2 is summarized the relevant information for the LANCE assay. Table 2: Reagents, stock concentrations and final assay concentrations for Her2 INS YVMA.
The compounds of general formula (I) summarized in Table 3 were serial diluted from a 10 mM DMSO stock solution 1:3 over 8 steps in a total volume of 20 µl.
For every sample, 8 µl of kinase-substrate mix was transferred into a suitable assay plate (e.g. Corning #3673). Compound was added via pintool transfer (10nl/well) using a Biomek FX robot (BeckmanCoulter). Reaction was started by addition of 2µl ATP working solution and mixed using variomag teleshaker (Thermo Fischer Scientific). After 1 h incubation at room temperature the reaction was stopped with 10µl detection mix containing the Eu-labeled phosphospecific antibody and 10mM EDTA. After a second incubation period of 1 h at room temperature the FRET signal was measured at 340 nm excitation, 665 nm and 615 nm emission (for the ULight-substrate and Eu-AB, respectively) with an Envision spectrophotometer (Perkin Elmer, Waltham, MA, USA) with 50 µs delay and 300 µs integration time. IC50 values were determined from the sigmoidal dose response curves with the software Quattro Workflow (Quattro GmbH, Munich, Germany).

The test system of another test is Cuto-17. Kind of test: Cuto-17 CellTiter-Glo assay. The class given is cell-based. The conditions noted are these: CUTO17; 72 h incubation; read-out: Cuto-17 CTG IC50. As to the method:
(§1) The CellTiter-Glo Luminescent Cell Viability Assay (Promega) is a homogeneous method of determining the number of viable cells in culture. It is based on quantification of ATP, indicating the presence of metabolically active cells. Cells are seeded on day 1 at cell numbers that assure assay linearity and optimal signal intensity. After incubation for 24h in humidified chambers at 37°C and 5% CO2, compounds in DMSO are added at different concentrations. Cells are further incubated for 72 h at 37°C and 5% CO2. Cells treated with the compound vehicle DMSO are used as positive controls and cells treated with 10 µM Staurosporine serve as negative controls. At day 5 the CellTiter Glo Reagent is prepared according to the instructions of the kit (Promega Inc.): Reagent is mixed 1:1 with cell culture medium. Thereon, mixture and assay plates are equilibrated at room temperature for 20 min. Equal volumes of the reagent-medium-mixture is added to the volume of culture medium present in each well. The plates are mixed at ∼200 rpm for 2 minutes on an orbital shaker. The microplates are then incubated at room temperature for 10 minutes for stabilization of the luminescent signal. Following incubation the luminescence is recorded on a Victor microplate reader (Perkin Elmer) using a 200 ms integration time. The data is then analyzed with Excel using the XLFIT Plugin (dose response Fit 205) for IC50-determination. As quality control the Z'-factor is calculated from 16 positive and negative control values. Only assay results showing a Z'-factor ≥ 0.5 are used for further analysis.

Test [1] concerns EGFR Exon 20 InsNPH Ba/F3. Kind of test: EGFR Exon 20 InsNPH Ba/F3 CellTiter-Glo assay. The class given is cell-based. The conditions noted are these: Mus musculus, BaF3; 72 h incubation; read-out: EGFR Exon 20 InsNPH Ba/F3 CTG IC50. As to the method: as §1
For the next test, the system named is H1975. Description: H1975 CellTiter-Glo assay. The class given is cell-based. The conditions noted are these: Homo sapiens, NCI-H1975; 72 h incubation; read-out: H1975 CTG IC50. As for the experimental part:
as §1

Another test deals with EGFR vIII Ba/F3. Kind of test: EGFR vIII Ba/F3 CellTiter-Glo assay. The class given is cell-based. As to conditions: Mus musculus, BaF3; 72 h incubation; read-out: EGFR vIII Ba/F3 CTG IC50. As to the method: as §1
A further test has as its system A431. Kind of test: A431 CellTiter-Glo assay. The class given is cell-based. As to conditions: Homo sapiens, A-431; 72 h incubation; read-out: A431 CTG IC50. As for the experimental part:
as §1

The subject of test [2] is Her2 Exon 20 InsYVMA Ba/F3. Kind of test: Her2 Exon 20 InsYVMA Ba/F3 CellTiter-Glo assay. The class given is cell-based. As to conditions: Mus musculus, BaF3; 72 h incubation; read-out: Her2 Exon 20 InsYVMA Ba/F3 CTG IC50. As to the method:
as §1

The target of a further test is EGFR wt (Homo sapiens, UniProt P00533). Kind of test: EGFR wt Lance assay. The class given is biochemical.
The target in a further test is EGFR L858R (Homo sapiens, UniProt P00533, L858R). Description: EGFR L858R Lance assay. The class given is biochemical.
The target in another test is EGFR (del746-750) (Homo sapiens, UniProt P00533, DEL746-750). Description: EGFR (del746-750) Lance assay. The class given is biochemical.
Another test deals with EGFR L858R Ba/F3. Kind of test: EGFR L858R Ba/F3 CellTiter-Glo assay. The class given is cell-based. As to conditions: Mus musculus, BaF3; 72 h incubation; read-out: EGFR L858R Ba/F3 CTG IC50. As to the method: as §1, with “The microplates are then incubated at room temperature for 10 minutes for stabilization of the luminescent signal.” left out, “Only assay results showing a Z'-factor ≥ 0.5 are used for further analysis.” left out

The next test concerns EGFR L858R T790M Ba/F3. Description: EGFR L858RT790M Ba/F3 CellTiter-Glo assay. The class given is cell-based. As to conditions: Mus musculus, BaF3; 72 h incubation; read-out: EGFR L858R T790M Ba/F3 CTG IC50. As for the experimental part:
as §1, with “The microplates are then incubated at room temperature for 10 minutes for stabilization of the luminescent signal.” left out, “Only assay results showing a Z'-factor ≥ 0.5 are used for further analysis.” left out

Bounds are passed on as bounds.

T1 sequence (P04626 with tags, fused parts or gaps INS775YVMA): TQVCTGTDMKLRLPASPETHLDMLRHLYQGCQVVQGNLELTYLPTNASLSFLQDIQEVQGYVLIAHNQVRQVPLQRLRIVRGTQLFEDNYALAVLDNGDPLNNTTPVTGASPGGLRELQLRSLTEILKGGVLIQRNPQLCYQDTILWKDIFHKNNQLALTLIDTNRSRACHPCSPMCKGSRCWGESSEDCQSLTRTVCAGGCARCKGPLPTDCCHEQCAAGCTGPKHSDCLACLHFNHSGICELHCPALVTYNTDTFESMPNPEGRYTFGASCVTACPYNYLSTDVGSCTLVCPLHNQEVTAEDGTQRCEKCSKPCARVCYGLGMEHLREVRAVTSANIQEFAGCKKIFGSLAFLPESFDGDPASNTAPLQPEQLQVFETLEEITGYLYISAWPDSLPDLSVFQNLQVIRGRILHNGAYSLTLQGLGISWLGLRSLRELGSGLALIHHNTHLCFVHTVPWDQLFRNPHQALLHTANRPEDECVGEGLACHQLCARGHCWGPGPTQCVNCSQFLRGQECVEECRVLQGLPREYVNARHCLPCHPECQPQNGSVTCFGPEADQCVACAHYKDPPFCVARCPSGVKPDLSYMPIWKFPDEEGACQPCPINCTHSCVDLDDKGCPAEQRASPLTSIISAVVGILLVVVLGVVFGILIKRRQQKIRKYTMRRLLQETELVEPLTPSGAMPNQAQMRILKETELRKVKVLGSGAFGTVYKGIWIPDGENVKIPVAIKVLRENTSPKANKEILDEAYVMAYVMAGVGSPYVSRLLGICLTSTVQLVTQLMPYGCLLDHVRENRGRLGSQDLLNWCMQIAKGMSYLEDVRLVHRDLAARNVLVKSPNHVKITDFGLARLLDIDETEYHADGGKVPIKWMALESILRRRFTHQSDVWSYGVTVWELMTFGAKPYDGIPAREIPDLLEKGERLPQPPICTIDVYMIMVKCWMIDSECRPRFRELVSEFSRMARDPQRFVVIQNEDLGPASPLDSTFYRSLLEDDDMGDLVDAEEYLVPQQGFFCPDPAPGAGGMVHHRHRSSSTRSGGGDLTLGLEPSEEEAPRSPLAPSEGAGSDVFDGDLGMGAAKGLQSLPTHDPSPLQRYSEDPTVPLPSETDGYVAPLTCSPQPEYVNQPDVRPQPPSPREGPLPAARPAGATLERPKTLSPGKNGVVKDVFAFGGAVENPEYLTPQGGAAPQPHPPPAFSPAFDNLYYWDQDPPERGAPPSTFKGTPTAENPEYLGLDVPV
Sequence of EGFR T790M L858R (P00533 25-1210 T790M/L858R): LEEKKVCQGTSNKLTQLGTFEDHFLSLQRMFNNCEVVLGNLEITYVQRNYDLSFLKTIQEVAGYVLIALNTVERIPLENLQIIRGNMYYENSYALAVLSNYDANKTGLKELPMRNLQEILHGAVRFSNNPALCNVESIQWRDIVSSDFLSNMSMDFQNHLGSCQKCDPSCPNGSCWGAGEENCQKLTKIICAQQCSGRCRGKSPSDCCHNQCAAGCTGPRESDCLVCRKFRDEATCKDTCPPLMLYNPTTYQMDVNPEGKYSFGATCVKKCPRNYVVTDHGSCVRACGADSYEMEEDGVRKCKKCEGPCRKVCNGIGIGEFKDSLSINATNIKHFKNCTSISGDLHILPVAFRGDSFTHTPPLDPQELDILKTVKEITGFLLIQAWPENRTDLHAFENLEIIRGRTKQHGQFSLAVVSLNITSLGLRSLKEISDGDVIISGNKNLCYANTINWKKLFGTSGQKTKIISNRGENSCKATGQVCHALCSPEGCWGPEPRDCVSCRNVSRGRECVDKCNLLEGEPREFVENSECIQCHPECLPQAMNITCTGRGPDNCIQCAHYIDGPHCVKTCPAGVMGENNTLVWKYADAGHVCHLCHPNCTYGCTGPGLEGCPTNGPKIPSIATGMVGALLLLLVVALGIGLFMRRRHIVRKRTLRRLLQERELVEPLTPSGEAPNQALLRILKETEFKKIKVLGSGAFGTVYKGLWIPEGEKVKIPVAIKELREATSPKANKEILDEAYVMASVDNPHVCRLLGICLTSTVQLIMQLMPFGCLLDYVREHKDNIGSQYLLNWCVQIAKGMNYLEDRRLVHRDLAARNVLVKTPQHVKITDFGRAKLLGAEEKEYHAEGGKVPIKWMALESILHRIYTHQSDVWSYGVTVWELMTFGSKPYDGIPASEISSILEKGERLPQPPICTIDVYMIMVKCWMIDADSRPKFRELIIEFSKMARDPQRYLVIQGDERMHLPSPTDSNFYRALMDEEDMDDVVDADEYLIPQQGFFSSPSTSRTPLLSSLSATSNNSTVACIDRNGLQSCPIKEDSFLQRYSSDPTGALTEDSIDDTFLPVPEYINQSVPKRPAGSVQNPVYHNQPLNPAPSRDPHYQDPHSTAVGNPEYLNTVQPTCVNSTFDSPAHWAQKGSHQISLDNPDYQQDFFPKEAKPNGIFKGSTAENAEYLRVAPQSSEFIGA
Sequence of EGFR wt (P00533 25-1210): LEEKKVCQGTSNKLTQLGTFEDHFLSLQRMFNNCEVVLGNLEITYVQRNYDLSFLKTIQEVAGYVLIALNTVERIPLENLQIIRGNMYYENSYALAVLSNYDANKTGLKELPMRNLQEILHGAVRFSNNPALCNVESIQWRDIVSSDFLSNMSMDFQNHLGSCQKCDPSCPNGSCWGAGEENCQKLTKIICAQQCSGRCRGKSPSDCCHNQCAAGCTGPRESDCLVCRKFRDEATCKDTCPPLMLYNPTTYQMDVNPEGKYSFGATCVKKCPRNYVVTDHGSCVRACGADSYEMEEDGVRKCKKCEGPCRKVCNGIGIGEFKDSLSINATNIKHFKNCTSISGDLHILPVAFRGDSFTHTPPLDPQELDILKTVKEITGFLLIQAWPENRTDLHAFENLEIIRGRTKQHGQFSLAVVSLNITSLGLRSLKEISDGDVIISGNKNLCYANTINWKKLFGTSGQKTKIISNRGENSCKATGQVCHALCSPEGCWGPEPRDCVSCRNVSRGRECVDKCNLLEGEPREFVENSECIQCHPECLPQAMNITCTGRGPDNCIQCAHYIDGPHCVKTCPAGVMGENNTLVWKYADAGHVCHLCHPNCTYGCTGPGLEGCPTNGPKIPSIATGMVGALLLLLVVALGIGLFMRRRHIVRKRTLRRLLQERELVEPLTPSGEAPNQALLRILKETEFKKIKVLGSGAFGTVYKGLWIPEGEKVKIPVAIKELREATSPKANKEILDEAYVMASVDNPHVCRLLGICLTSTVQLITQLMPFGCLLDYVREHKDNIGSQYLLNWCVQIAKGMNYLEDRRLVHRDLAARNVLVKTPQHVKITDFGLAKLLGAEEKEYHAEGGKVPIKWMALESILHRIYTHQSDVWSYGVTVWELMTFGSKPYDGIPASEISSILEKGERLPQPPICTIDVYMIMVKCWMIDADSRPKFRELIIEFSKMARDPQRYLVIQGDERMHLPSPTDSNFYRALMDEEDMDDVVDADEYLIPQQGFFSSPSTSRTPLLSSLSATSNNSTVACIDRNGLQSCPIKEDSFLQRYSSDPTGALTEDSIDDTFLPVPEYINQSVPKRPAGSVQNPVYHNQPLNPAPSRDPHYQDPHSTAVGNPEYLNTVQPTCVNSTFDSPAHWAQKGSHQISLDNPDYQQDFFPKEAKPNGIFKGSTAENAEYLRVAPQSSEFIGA
Sequence of EGFR (del746-750) (P00533 with tags, fused parts or gaps DEL746-750): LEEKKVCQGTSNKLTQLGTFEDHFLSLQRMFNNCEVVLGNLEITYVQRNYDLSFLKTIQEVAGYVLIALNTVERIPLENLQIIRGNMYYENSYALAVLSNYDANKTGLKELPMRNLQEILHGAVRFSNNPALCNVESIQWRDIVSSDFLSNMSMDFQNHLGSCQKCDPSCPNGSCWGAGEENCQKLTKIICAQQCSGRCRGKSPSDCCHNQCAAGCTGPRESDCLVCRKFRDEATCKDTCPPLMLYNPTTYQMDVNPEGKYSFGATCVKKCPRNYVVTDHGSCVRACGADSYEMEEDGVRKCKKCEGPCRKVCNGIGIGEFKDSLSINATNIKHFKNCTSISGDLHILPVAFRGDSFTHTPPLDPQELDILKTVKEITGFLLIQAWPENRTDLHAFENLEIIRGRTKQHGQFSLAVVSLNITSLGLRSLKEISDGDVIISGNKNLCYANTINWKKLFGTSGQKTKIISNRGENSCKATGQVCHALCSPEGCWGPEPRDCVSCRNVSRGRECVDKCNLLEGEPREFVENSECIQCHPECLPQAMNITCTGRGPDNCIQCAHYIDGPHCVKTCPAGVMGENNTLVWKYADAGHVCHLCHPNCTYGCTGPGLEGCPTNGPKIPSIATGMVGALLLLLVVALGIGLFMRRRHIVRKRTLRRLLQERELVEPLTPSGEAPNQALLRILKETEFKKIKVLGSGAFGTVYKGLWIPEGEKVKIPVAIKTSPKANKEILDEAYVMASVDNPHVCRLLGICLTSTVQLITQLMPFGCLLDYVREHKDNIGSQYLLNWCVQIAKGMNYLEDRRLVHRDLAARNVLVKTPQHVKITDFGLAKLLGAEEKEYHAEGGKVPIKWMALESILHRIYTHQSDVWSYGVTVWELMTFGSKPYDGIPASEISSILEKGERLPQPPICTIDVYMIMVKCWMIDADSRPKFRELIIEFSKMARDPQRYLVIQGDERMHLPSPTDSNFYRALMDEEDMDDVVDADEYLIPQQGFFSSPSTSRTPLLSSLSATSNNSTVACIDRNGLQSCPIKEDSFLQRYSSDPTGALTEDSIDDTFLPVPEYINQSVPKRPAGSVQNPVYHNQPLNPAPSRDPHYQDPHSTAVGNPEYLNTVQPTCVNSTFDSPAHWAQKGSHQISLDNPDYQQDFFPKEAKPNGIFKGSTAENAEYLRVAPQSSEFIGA

As for `C=CC(=O)Nc1cc(-c2c(-c3ccc(N4CCN(C)CC4)cc3)[nH]c3ncc(-c4cnn(C)c4)cc23)ccc1C` [Example 1, N-(2-methyl-5-(5-(1-methyl-1H-pyrazol-4-yl)-2-(4-(4-methylpiperazin-1-yl)phenyl)-1H-pyrrolo[2,3-b]pyridin-3-yl)phenyl)acrylamide], the IC50 against EGFR T790M L858R is at most 50 nM; against HER2 INS YVMA it was at most 50 nM; in the test on Cuto-17, 100 to 500 nM; in [1], at most 50 nM; with H1975 it was 100 to 500 nM; with EGFR vIII Ba/F3 it was at most 50 nM. Besides, the IC50 in the test on A431 was 1000 to 10000 nM; in test [2], 100 to 500 nM; on EGFR wt it was at most 50 nM.

Take `C=CC(=O)Nc1cc(-c2c(-c3ccc(N4CCN(C)CC4)cc3)[nH]c3ncc(-c4ccnn4C)cc23)ccc1C` [Example 2, N-(2-methyl-5-(5-(1-methyl-1H-pyrazol-5-yl)-2-(4-(4-methylpiperazin-1-yl)phenyl)-1H-pyrrolo[2,3-b]pyridin-3-yl)phenyl)acrylamide]: the IC50 on EGFR T790M L858R is at most 50 nM; against HER2 INS YVMA, at most 50 nM; with Cuto-17, 100 to 500 nM; in [1], 50 to 100 nM; with H1975, 100 to 500 nM; in the test with EGFR vIII Ba/F3 it was at most 50 nM. Also, the IC50 in the test on A431 is 1000 to 10000 nM; in [2], 100 to 500 nM; at EGFR wt, at most 50 nM.

For the compound `C=CC(=O)Nc1cc(-c2c(-c3ccc(N4CCN(C)CC4)cc3)[nH]c3ncc(-c4cnn(C)c4C)cc23)ccc1C` [Example 3, N-(5-(5-(1,5-dimethyl-1H-pyrazol-4-yl)-2-(4-(4-methylpiperazin-1-yl)phenyl)-1H-pyrrolo[2,3-b]pyridin-3-yl)-2-methylphenyl)acrylamide], the IC50 on EGFR T790M L858R was at most 50 nM; at HER2 INS YVMA it was at most 50 nM; with Cuto-17 it was at most 50 nM; in test [1], at most 50 nM; in the test on H1975, 50 to 100 nM; with EGFR vIII Ba/F3, at most 50 nM. Moreover, the values for the IC50 (in the test on A431; in test [2]; at EGFR wt) were 500 to 1000 nM, at most 50 nM and at most 50 nM, respectively.

For `C=CC(=O)Nc1cc(-c2c(-c3ccc(N4CCN(C)CC4)cc3)[nH]c3ncc(-c4cnn(CC)c4)cc23)ccc1C` [Example 4, N-(5-(5-(1-ethyl-1H-pyrazol-4-yl)-2-(4-(4-methylpiperazin-1-yl)phenyl)-1 H-pyrrolo[2,3-b]pyridin-3-yl)-2-methylphenyl)acrylamide], the IC50 against EGFR T790M L858R was at most 50 nM; against HER2 INS YVMA it was at most 50 nM; in the test on Cuto-17, 100 to 500 nM; in test [1], at most 50 nM; in the test with H1975 it was 100 to 500 nM; in the test on EGFR vIII Ba/F3, at most 50 nM. Further, the IC50 with A431 is 500 to 1000 nM; in [2], 50 to 100 nM; against EGFR wt it was at most 50 nM.

Consider `C=CC(=O)Nc1cc(-c2c(-c3ccc(N4CCN(C)CC4)cc3)[nH]c3ncc(-c4cn(C)nc4C)cc23)ccc1C` [Example 5, N-(5-(5-(1,3-dimethyl-1H-pyrazol-4-yl)-2-(4-(4-methylpiperazin-1-yl)phenyl)-1H-pyrrolo[2,3-b]pyridin-3-yl)-2-methylphenyl)acrylamide], for which the IC50 on EGFR T790M L858R is at most 50 nM; at HER2 INS YVMA, at most 50 nM; in the test with Cuto-17, 100 to 500 nM; in test [1] it was at most 50 nM; in the test on H1975, 500 to 1000 nM; in the test with EGFR vIII Ba/F3, 50 to 100 nM. Moreover, the IC50 on EGFR L858R is at most 50 nM; on EGFR (del746-750), at most 50 nM; in the test with A431, 1000 to 10000 nM; in [2], 100 to 500 nM; on EGFR wt it was at most 50 nM.

With `C=CC(=O)Nc1cc(-c2c(-c3ccc(N4CCN(C)CC4)cc3)[nH]c3ncc(-c4cnn(C5CC5)c4)cc23)ccc1C` [Example 6, N-(5-(5-(1-cyclopropyl-1H-pyrazol-4-yl)-2-(4-(4-methylpiperazin-1-yl)phenyl)-1H-pyrrolo[2,3-b]pyridin-3-yl)-2-methylphenyl)acrylamide], the IC50 on EGFR T790M L858R was at most 50 nM; against HER2 INS YVMA, at most 50 nM; in the test on EGFR L858R Ba/F3, at most 50 nM; in the test with Cuto-17 it was 100 to 500 nM; in [1], at most 50 nM; in the test with H1975, 100 to 500 nM. Besides, the IC50 in the test with EGFR vIII Ba/F3 is at most 50 nM; against EGFR L858R, at most 50 nM; against EGFR (del746-750) it was at most 50 nM; in the test on A431, 1000 to 10000 nM; in the test with EGFR L858R T790M Ba/F3, at most 50 nM; in [2], at most 50 nM. The IC50 against EGFR wt was at most 50 nM.

Turning to `C=CC(=O)Nc1cc(-c2c(-c3ccc(N4CCN(C)CC4)cc3)[nH]c3ncc(-c4cnn(CCOC)c4)cc23)ccc1C` [Example 7, N-(5-(5-(1-(2-methoxyethyl)-1H-pyrazol-4-yl)-2-(4-(4-methylpiperazin-1-yl)phenyl)-1H-pyrrolo[2,3-b]pyridin-3-yl)-2-methylphenyl)acrylamide], the IC50 against EGFR T790M L858R is at most 50 nM; against HER2 INS YVMA, at most 50 nM; in the test on Cuto-17, 100 to 500 nM; in [1], at most 50 nM; in the test with H1975 it was 100 to 500 nM; in the test on EGFR vIII Ba/F3 it was at most 50 nM. The IC50 with A431 is 1000 to 10000 nM; in test [2], 100 to 500 nM; against EGFR wt it was at most 50 nM.

Source of the values: patent publication EP3868760A1, “2,3,5-SUBSTITUTED PYRROLO[2,3-B]PYRIDINES AS ERBB MODULATORS USEFUL FOR TREATING CANCER” (PearlRiver Bio GmbH, priority 2020, dated 2021).
